What was measured:
GLUTx [1] = assay: Immunocytochemical localisation of GLUTx in insulin-stimulated MTLn3 cells; type: cell-based, rat; details: insulin 500 nM, 1 h, basal state perinuclear Golgi region, data not shown
Method: (§1) Immunohistochemistry was performed according to protocols provided by the Dako LSAB (labeled streptoavidin biotin reagents) and Dako EnVision+System (peroxidase, DAB) kits. However, some modifications were made. In brief, tissue on a slide was deparaffinized in xylene, and rehydrated in water. For cells that were processed, the slides or coverslips containing the cells were fixed in 4% paraformaldehyde for 1 h, then washed 4 times in buffered solution (TBS). The slides were placed in 3% H2O2 for 15 min in a 37° C. water bath to quench endogenous peroxidase activity. Epitope retrieval in paraffin-embedded tissue was achieved by heating the slides to 95° C. in a pre-heated citric acid solution (0.01 M citric acid, 0.01 M sodium citrate; pH 6.0). This temperature was maintained for 15 min in a microwave on high power or in a steam bath. The slides then were cooled. At this point, processing was started for the slides containing fixed cells.
(§2) Next, the primary antibody to GLUTx was applied to the slides for 30 min at room temperature (RT). Slides were rinsed in TBS 3 times for 5 min. The slides then were incubated with secondary antibody, as provided in the kit, for 15–20 min at RT. The slides were rinsed well with PBS, and the tertiary reagent (Strep-Avidin or HRP-labeled EnVision polymer) was applied for 15–20 min at RT. […]

GLUTx [2] = assay: Immunocytochemical localisation of GLUTx in insulin-stimulated MTC cells; type: cell-based, rat; details: insulin 500 nM, 1 h, basal state mainly perinuclear Golgi region, data not shown
Method: as §1, §2

## insulin: hormone used to stimulate the cells (500 nM for 1 h)
GLUTx [1]
  distribution of GLUTx (light microscopy): also associated with the cell membrane
GLUTx [2]
  distribution of GLUTx (light microscopy): localized also on the cell membrane
